biological target: T1, LPAAT-β (Homo sapiens, UniProt O15120); assay: LPAATβ colorimetric assay (DTNB detection of released CoA); type: biochemical; conditions: Sf9 cell membrane overexpressing LPAAT-β
T1 construct: the full-length human LPAAT-β cDNA was amplified by PCR; made in house; host or cells: Sf9 insect cells (baculovirus, pFastBac HTc); membrane fraction
T1 sequence (O15120 24-278): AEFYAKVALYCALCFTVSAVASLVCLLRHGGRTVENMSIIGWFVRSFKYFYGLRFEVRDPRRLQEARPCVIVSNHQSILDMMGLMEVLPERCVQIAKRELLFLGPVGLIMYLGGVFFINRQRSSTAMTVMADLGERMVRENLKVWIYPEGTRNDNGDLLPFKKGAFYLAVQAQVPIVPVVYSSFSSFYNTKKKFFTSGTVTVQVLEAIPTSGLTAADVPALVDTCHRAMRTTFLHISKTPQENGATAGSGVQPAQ
Protocol: For the construction of Baculovirus expression vectors, the full-length human LPAAT-β cDNA was amplified by PCR from the DNA template pCE9.LPAAT-β (West et al., DNA Cell Biol. 16:691-701 (1997)) using the primers 5′-TGATATCCGAAGAAGATCTTATGGAGCTGTGGCCGTGTC-3′ (olpb1F; SEQ ID NO:3) and 5′-CAGGCTCTAG ACTACTGGGC CGGCTGCAC-3′ (olpb1R; SEQ ID NO:4). The ˜870 bp fragment generated was reamplified by PCR using the primers 5° CCTACGTCG ACATGGAACAAAAATTGATATCCGAAGAAGATC-3′ (olpb2F; SEQ ID NO:5) and 5′-CAGGCTCTAG ACTACTGGGC CGGCTGCAC-3′ (olpb1R; SEQ ID NO:6). The ˜890 bp fragment generated was then cleaved with Sal I and Xba I for insertion into pFastBac™ HTc vector (Life Technologies, Gaithersberg, Md.) between the Sal I and Xba I sites for the generation of the plasmid pFB.LPAAT-β. This plasmid was then transformed into E. coli DH10Bac™ (Life Technologies, Gaithersberg, Md.) for the generation of recombinant Bacmid DNA for transfection into HighFive (Invitrogen, San Diego, Calif.) or SF9 insect cells for the production of recombinant Baculovirus stocks using the protocol described in the Bac-to-Bac® Baculovirus Expression System (Life Technologies, Gaithersberg, Md.), a eukaryotic expression system for generating recombinant baculovirus through site- specific transposition in E. coli. Viral stocks harvested from the transfected cells can then be used to infect fresh insect cells for the subsequent expression of LPAAT-β fusion protein with a poly-histidine tag and a myc-epitope near its N-terminus. The membrane fraction from these Sf9 cells would be the source of LPAAT enzyme.
For the preparation of membranes From Sf9 Cells, all steps are performed on ice or at 4° C. Sf9 cell pellets (˜10^8 cells) were thawed and resuspended in 1-2 ml of buffer A (20 mM Hepes, pH 7.5, 1 mM DTT, 1 mM EDTA, 20% w/v glycerol, 1 mM Benzamidine, 1 μg/ml soybean trypsin inhibitor (SBTI), 1 μg/ml pepstatin A) w/o DTT but with 1 mM Pefabloc. The cells were lysed by sonication using a Branson Sonifier at output=2, duty cycle=2, 10 pulses each at 10 s. with the tip of small sonicator probe submerged but not touching the walls. DTT was then added to 1 mM from a 1 M stock. The samples were centrifuged at 1500 rpm for 5 min. The low speed supernatant was saved and centrifuged (TLA 100.3 rotor, polycarbonate tubes, 2 ml/tube or 1.5 ml/tube minimum) at 100000×g for 1 hr. The high speed pellet was resuspend in Buffer A with a probe sonicator (10 pulses @ output #2 and duty cycle 20%) as a source of LPAAT enzyme.
LPAAT-β catalyzes the transfer of an acyl group from a donor such as acyl-CoA to LPA. The transfer of the acyl group from acyl-CoA to LPA leads to the release of free CoA, which can be reacted with the thiol reagent, 5,5′-dithiobis(2-nitrobenzoic acid) (DTNB). The reaction between DTNB and the free sulfhydryl group from CoA generates a yellow-colored product, 3-carboxylato-4-nitrothiophenolate (CNP), that absorbs at 413 nm. LPAAT-β derived from Sf9 cell membrane overexpressing LPAAT-β were resuspended in HEPES saline buffer (20 mM HEPES pH 7.5, 150 mM NaCl), 1 mg/ml BSA and 72 μl aliquots were distributed into 96-well microtiter plates. 8 μl of compound of interest at 200 μM dissolved in 100% DMSO was added into each well. 20 μl of 1 mM 18:1-CoA and 1 mM sn-1-18: 1 lysoPA was then added to each well to initiate the reaction and allowed to run at room temperature for 25 min. 100 μl of 1 mM DTNB in 100% ethanol was then added to each well to quench the reaction and for color development. The absorbance at 405 nm, measured using a spectrophotometer plate reader, is proportional to the activity of LPAAT-β in the sample. This colorimetric assay was used for the high throughput screening of LPAAT inhibitors. […] Compounds that gave a reading of less than 0.06 arbitrary units (indicated by arrow on right margin) were selected for further study.

Structure (SMILES)	IC50
CSc1nc(Nc2ccccc2)nc(Nc2ccc(Cl)cc2)n1 [CT-31888, N-(4-chlorophenyl)-6-methylsulfanyl-N′-phenyl-[1,3,5]triazine-2,4-diamine]	3100 nM
CCCNc1nc(Cl)nc(Nc2ccc(Cl)cc2)n1 [CT-116988, 6-chloro-N-2-(4-chlorophenyl)-N-4-propyl-[1,3,5]triazine-2,4-diamine]	160 nM
CCCNc1nc(Nc2ccc(Cl)cc2)nc(OC)n1 [CT-117147, N-(4-chlorophenyl)-6-methoxy-N′-propyl-[1,3,5]triazine-2,4-diamine]	3800 nM
COc1ccc(Nc2nc(Cl)nc(Nc3ccc(Cl)cc3)n2)cc1 [CT-31867, 6-chloro-N-(4-chlorophenyl)-N′-(4-methoxy-phenyl)-[1,3,5]triazine-2,4-diamine]	750 nM
COc1ccc(Nc2nc(Cl)nc(Nc3ccccc3)n2)cc1 [CT-31942, 6-chloro-N-(4-methoxyphenyl)-N′-phenyl-[1,3,5]triazine-2,4-diamine]	400 nM

Now from value to molecule:

IC50	Structure (SMILES)
200 nM	Clc1nc(Nc2ccccc2)nc(Nc2ccc3c(c2)OCO3)n1 [CT-32042, N-benzo[1,3]dioxol-5-yl-6-chloro-N′-phenyl-[1,3,5]triazine-2,4-diamine]
200 nM	Clc1nc(Nc2ccccc2)nc(Nc2ccc3c(c2)OCCO3)n1 [CT-32028, 6-chloro-N-(2,3-dihydrobenzo[1,4]dioxin-6-yl)-N′-phenyl-[1,3,5]triazine-2,4-diamine]
1000 nM	Clc1ccc(Nc2nc(Cl)nc(Nc3ccc4c(c3)OCO4)n2)cc1 [CT-31978, N-benzo[1,3]dioxol-5-yl-6-chloro-N′-(4-chlorophenyl)-[1,3,5]triazine-2,4-diamine]
650 nM	Clc1nc(Nc2ccccc2)nc(Nc2ccc3c(c2)CCC3)n1 [CT-32099, 6-chloro-N-indan-5-yl-N′-phenyl-[1,3,5]triazine-2,4-diamine]
